In patent publication US12298297B2, “Visual cell sorting” (University of Washington, priority 2020, dated 2025):

Tests used:
hTERT RPE-1 = test: Nuclear shape factor imaging of paclitaxel-treated cells (nuclear lobulation); type: cell-based, human; settings: 0.25 nM paclitaxel, 24 hours, RPE-1 NLS-Dendra2×3 cells
Experimental: FIGS. 4A-4F. Visual Cell Sorting to dissect heterogeneous nuclear morphology following paclitaxel treatment. (4A) RPE-1 NLS-Dendra2×3 cells were treated for 24 hours with 0.25 nM paclitaxel or DMSO and imaged. The shape factor, which measures the degree of an object's circularity, was computed for each nucleus. One normal nucleus with a shape factor near one and one lobulated nucleus with a low shape factor are shown. The computationally determined boundaries of each nucleus are shown in blue; scale bar=10 (4B) Shape factor density plots for vehicle (DMSO) and 0.25 nM paclitaxel-treated RPE-1 cells (n≥3,914 cells per treatment). Dashed line, cutoff for lobulated nuclei (shape factor <0.65). […]
To test whether Visual Cell Sorting enables transcriptomics on cells with distinct image-based phenotypes, single cell RNA sequencing was performed on cells undergoing divergent morphologic responses to paclitaxel. […] Paclitaxel treated cells were then analyzed it was observed that 30% of paclitaxel treated cells had lobulated nuclei, defined by shape factor of less than 0.65 (FIG. 4B).
RPE-1 NLS-Dendra2×3/H2B-miRFP/NES-mBeRFP Clone 3 cells were plated at 50,000 cells per well in a 6-well plate. […] After 30 hours of treatment, cells were placed on the microscope and imaged, analyzed, and activated across 2,204 sites (˜75% coverage, avoided well edges) in 2 wells. […]

U-2 OS H3-Dendra2 cells = test: Nucleus-to-cytoplasm (N:C) miRFP ratio of individually expressed NLS variants fused to CMPK-miRFP reporter; type: cell-based, human
Experimental: FIGS. 3A-3D. Visual Cell Sorting-derived variant scores accurately predict NLS function. (3A) Nine NLS variants were individually expressed in the CMPK-miRFP reporter in U-2 OS H3-Dendra2 cells. The median nucleus to cytoplasm (N:C) ratio of cells expressing each variant was measured by microscope and compared to its localization score derived by Visual Cell Sorting. n≥141 cells per variant per replicate. Bars, mean across at least three separate replicates. (3B) SV40 NLS variants that appeared to enhance nuclear localization were individually tested both alone and in combination. NLS variants with up to three amino acid changes were expressed in U-2 OS H3-Dendra2 cells and imaged; the median N:C ratio was quantified across cells in the same well. n≥527 cells per variant per replicate. […]
A library was based on the SV40 NLS, a 7-residue sequence containing a lysine and arginine-rich region (K/R motif) that was the first NLS to be discovered. […] The degree of nuclear localization was calculated using a nucleus-to-cytoplasm miRFP intensity ratio (N:C ratio; FIG. 9A). […]
Analysis of Metamorph-calculated nucleus and cytoplasm mean intensity values was done using Python (v3.6.5). […] Cells with no miRFP expression were removed with a gate that was determined by examination of the histogram of the mean miRFP intensity values for cells in each well. […]

Row | Compound | cells with lobulated nuclei, defined by shape factor of less than 0.65 (hTERT RPE-1) [%] | increase in nuclear localization compared to the wild-type SV40 NLS (median N:C ratio) (U-2 OS H3-Dendra2 cells) [fold]
1 | CC(=O)O[C@H]1C(=O)[C@@]2(C)[C@H]([C@H](OC(=O)c3ccccc3)[C@]3(O)C[C@H](OC(=O)[C@H](O)[C@@H](NC(=O)c4ccccc4)c4ccccc4)C(C)=C1C3(C)C)[C@]1(OC(C)=O)CO[C@@H]1C[C@@H]2O [paclitaxel] | 30 | –
2 | EPPRKKRKIGI [superNLS, optimized SV40 NLS with three missense variants, fused to the CMPK-miRFP reporter] | – | 2.3
